Test results: the METLIN SMRT retention time set (Domingo-Almenara et al. 2019)

Test: gradient 5% acetonitrile 3 min, to 50% in 2 min, to 85% in 15 min, held 3 min, 100 µL/min
Conditions: column: Zorbax Extend-C18 2.1 x 50 mm; eluents: water / acetonitrile, 0.1% formic acid
Method in brief: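 Retention time was recorded from adduct peaks, which were picked computationally and each inspected manually. Pure standards ran in mixtures of ~100 molecules on HPLC coupled to a quadrupole time-of-flight mass spectrometer, in positive and negative ionization mode, through a Zorbax Extend-C18 column (2.1 × 50 mm, 1.8 μm) at 100 μL/min. Eluents were water and acetonitrile, each with 0.1% formic acid.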

Structure (SMILES)	RP-LC retention time
COc1ccccc1-c1nc2cnccn2c1NCCC(=O)NC1CCCCC1	673 s
CCCn1c(CCNC(=O)c2ccc(Cl)cc2)nc2cccnc21	722 s
CCc1ccc(NC(=O)Cn2c(C)nc3cc4c(cc32)OCCO4)cc1	668 s
CCCN1CCN(CCCNC(=O)CSc2nc3ccccc3n(C)c2=O)CC1	564 s
COc1cc2nccc(Oc3ccc(NC(=O)C4(C(=O)Nc5ccc(F)cc5)CC4)cc3)c2cc1OC	833 s
COc1ccccc1NC(=O)N1CCC2(CC1)N=C(c1ccc(Cl)cc1)C(=O)N2	884 s
COc1ccc(NC(=O)C2c3ccccc3C(=O)N3CCc4ccccc4C23)cc1OC (centres undefined)	762 s
COc1ccc(-n2ccc(=O)c(-c3nc(-c4ccc5c(c4)OCO5)no3)n2)cc1	855 s
Cc1ccc(-c2nnc(SCC(=O)Nc3cccc(Cl)c3C)o2)cc1	1020 s
CCn1nccc1-c1cccc(-c2noc(C3CCN(S(=O)(=O)c4ccc(C)cc4)CC3)n2)c1	1170 s
Cc1ccc(Nc2c(-c3ccccc3)nc3cc(C)ccn23)cc1	741 s
Cn1ccc2cc(S(=O)(=O)N3CCCC(C(=O)NCCCN4CCCCCC4)C3)ccc21 (centres undefined)	668 s
O=C(CN1C(=O)C(C(=O)N2CCCC2)Sc2ccccc21)NCCc1ccccc1 (centres undefined)	898 s
Cn1ncc2c(N3CCSCC3)nc(C(=O)NCc3ccc(F)cc3)nc21	823 s
COCCn1c(C2CCN(S(=O)(=O)c3ccc(F)c(Cl)c3)C2)nc2ccncc21 (centres undefined)	590 s
COCC(=O)N1C[C@@H]2CCCN3CCC[C@@H]([C@H]23)[C@H]1CCCC(=O)NCC1CC1	566 s
CC(C)NC(=O)c1ccc(OCC2CCCN(C(=O)c3ccc(F)c(Cl)c3)C2)cc1 (centres undefined)	915 s
COC(=O)c1cnc2nc(C)ccc2c1Nc1ccccc1F	649 s
COc1ccc(-c2noc(-c3ncn4c3COC(c3ccc(F)cc3)C4)n2)cc1OC (centres undefined)	958 s
O=C(CN1C(=O)C2CCCCN2c2ccc(C(=O)N3CCCCC3)cc21)NCc1cccnc1 (centres undefined)	615 s
CC(=O)c1cccc(NC(=O)c2cn(C)cc3c(=O)n(-c4ccccc4)nc2-3)c1	826 s
O=C(Cn1nc2n(c1=O)CCCC2)Nc1ccccc1	633 s
CCCn1cnc2cc(CNC(=O)c3cc4cc(Cl)ccc4[nH]3)ccc21	720 s

Structure (SMILES)	RP-LC retention time
Cn1nccc1-c1cccc(-c2noc(C3CC(=O)N(c4cccc(Cl)c4)C3)n2)c1 (centres undefined)	978 s
O=C(N[C@H]1C[C@@H]2C[C@H]1N(C(=O)NCc1cccc(F)c1)C2)c1cccs1	765 s
CCc1noc(-c2nnn3c2COC(c2ccc(F)cc2)C3)n1 (centres undefined)	960 s
Cc1ccc(NC(=O)C2CCN(S(=O)(=O)c3ccc4c(c3)sc(=O)n4C(C)C)CC2)nc1	794 s
Cc1cc(C)c2c(N3CCOCC3)nc(C(=O)N3CCC(C)CC3)nc2n1	626 s
COc1ccccc1CC(=O)Nc1cccn2cnnc12	674 s
CCC(=O)Nc1ccc2c(c1)N(C(=O)c1cccs1)CCC2	717 s
O=c1c(Cl)c(N2CCN(c3ccccn3)CC2)cnn1-c1nc2ccccc2s1	639 s
CCc1noc(NC(C)=O)c1-c1ccc(C)c(S(=O)(=O)N2CCN(c3ccccc3F)CC2)c1	723 s
CC(=O)N(Cc1nn(C)c2c1CN(S(=O)(=O)c1cc(C)cc(C)c1)CC2)c1ccccc1	856 s
COC(=O)c1ccc(NC(=O)c2oc(C)nc2C)cc1	658 s
COCC(=O)NC1CCC12CCN(C(=O)c1ccco1)CC2 (centres undefined)	648 s
O=C(CSc1cc(-n2ccc(C(=O)NC3CC3)n2)ncn1)Nc1ccc2c(c1)OCO2	714 s
Cc1nc(C)c(C(=O)NCC23CCC=C2N(C)C(=O)CC3)s1 (centres undefined)	651 s
Cc1cc(=O)n(CC(=O)Nc2ccc(Br)cc2F)c(N(C)Cc2ccccc2)n1	862 s
COc1ccccc1CC(=O)Nc1cnc(-c2cccnc2)nc1	663 s
CCCn1cc(S(=O)(=O)Nc2ccc(OC)cc2)c2cccnc21	886 s
COc1ccc(C(=O)NC2CCN(c3ccc(F)cc3)C2=O)cc1F (centres undefined)	806 s
Cn1c(=O)c2cc(C(=O)Nc3ccc4c(c3)OCCO4)cnc2n(-c2ccc(F)cc2)c1=O	856 s
Cc1nn(CC(=O)NC2CCCCC2)c(=O)c2c(-n3cccc3)n(-c3ccc(Cl)cc3)nc12	1130 s
CC1(C(=O)NC2CCCC2)CC(c2ccccc2)=NO1 (centres undefined)	700 s
CC1CCCCN1C(=O)Cn1c(CCO)nc2ccccc21 (centres undefined)	583 s
c1ccc2sc(C3(NCC4CC4)CCCCC3)cc2c1	799 s

Structure (SMILES)	RP-LC retention time
Cc1ccc2c(c1)NC(=O)C(CC(=O)N1CCN(c3cccc(C)c3C)CC1)CO2 (centres undefined)	781 s
CCOC(=O)C1CCN(C(=O)c2nnc(-c3ccc(S(=O)(=O)N4CCCC4)cc3)o2)CC1	881 s
COc1ccc(C(=O)N2CCN(c3nc(-c4ccccc4)no3)CC2)cc1OC	849 s
Cc1noc(C2CCCCCN2C(=O)NC(C)C)n1 (centres undefined)	708 s
CNC(=O)c1cc(=O)[nH]c2c(Cl)cccc12	596 s
CCCN1CCCCc2cc(C(=O)NCC(F)F)sc21	932 s
CCCOc1ccc(CN2C[C@@H](CO)[C@H](c3ccncc3)C2)cc1	575 s
CCCCn1cc(S(=O)(=O)NCc2cccc(C)c2)c2cccnc21	1000 s
Cc1ccc(C)c(OCc2nc(CC(=O)Nc3nc(-c4ccc(F)cc4)c(C)s3)cs2)c1	1310 s
CCn1cc(C2=CCN(C(=O)Nc3ccc(OC)c(F)c3)CC2)c2cccnc21	885 s
NCCc1nc(-c2ccccc2)cs1	550 s
CCc1nnc(-c2ccc3ccn(CC(=O)N4CCN(c5cccc(OC)c5)CC4)c3c2)o1	864 s
CCCC1NN(C)C2C(=O)NC(c3cc(S(=O)(=O)N4CCN(C)CC4)ccc3OCC)NC12 (centres undefined)	722 s
Cc1cccc(N2CCN(C(=O)C3CCN(C(=O)C4Sc5ccccc5NC4=O)CC3)CC2)c1C (centres undefined)	918 s
CCCNC(=O)N1CC(c2nc(-c3ccc(F)cc3)no2)C2(CCOCC2)C1 (centres undefined)	793 s
COC(=O)c1c(-c2ccc(F)cc2)noc1NCCc1cccs1	1090 s
CCOc1ccccc1-c1nc(C2CC(=O)N(c3ccc(CC)cc3)C2)no1 (centres undefined)	1130 s
O=C(CSc1nnc(-c2cccc(S(=O)(=O)N3CCOCC3)c2)o1)c1ccccc1	847 s
CCC(C)N(CC(=O)N(Cc1ccco1)CC1CCCO1)C(=O)c1ccc(C)cc1 (centres undefined)	917 s
CC(=O)N1CCCCC1c1nc(-c2cccnc2)no1 (centres undefined)	663 s
COc1ccc(CCNS(=O)(=O)c2cccc(-c3nc(-c4ccc(C)cc4)no3)c2)cc1OC	1150 s
CCCS(=O)(=O)c1nc2ccc(NS(=O)(=O)c3ccc(F)c(C)c3)cc2s1	983 s
N#Cc1ccc(C(=O)N2CC(n3cc(COCC4CC4)nn3)C2)cc1	691 s

Structure (SMILES)	RP-LC retention time
COc1cccc(-n2c(=O)c3sccc3n(Cc3nc(-c4ccccc4)no3)c2=O)c1	956 s
O=C(Nc1nnc(-c2cc3ccccc3o2)o1)c1ccc([N+](=O)[O-])o1	792 s
COCCNC(=O)c1ccc(-c2nc(CSc3ccccc3)c(C)o2)cc1	882 s
Cc1cc(C)n(-c2ccnc(NCCC3=CCCCC3)n2)n1	975 s
CCS(=O)(=O)N1CC(=O)N(c2cccc(F)c2)C(C)(C(=O)NC2CCCCC2)C1 (centres undefined)	817 s
CCc1nc(-c2csc(S(=O)(=O)N3CCCC(C(=O)Nc4ccccc4OC)C3)c2)no1 (centres undefined)	1060 s
Cc1ccc(CNC(=O)c2cc3n(n2)CC(C)(C(=O)NCc2ccc(C)cc2)N(C)C3=O)cc1 (centres undefined)	823 s
CSc1ccc(-c2nc3cnccn3c2Nc2ccc3c(c2)OCCO3)cc1	863 s
COc1ccc(-c2c(C)nn3c(C)c(C(=O)OC(C)C)nnc23)cc1	1010 s
CCN1C(=O)c2cc(C(=O)Nc3ccc(F)cc3)nn2CC1(C)C(=O)NC1CCCC1 (centres undefined)	813 s
CCOc1cccc(CNS(=O)(=O)c2cc(-c3nc(C(C)(C)C)cs3)cs2)c1	1270 s
COCCc1nc(C2CCCN(C(=O)c3sccc3C)C2)n[nH]1 (centres undefined)	590 s
Cc1nc(-c2ccc(C(=O)N(C)C)c(F)c2)no1	693 s
Cc1ccc2c(Nc3ccc(F)cc3C)c(-c3nc(C)no3)cnc2n1	756 s
Cc1ccc2c(Sc3ccc(Cl)cc3)c(C(=O)N3CCN(c4ccccn4)CC3)[nH]c2c1	894 s
Cn1cc(CCN2CCN(S(=O)(=O)c3ccccc3F)CC2)c2cccnc21	608 s
CC1(C)CNc2cc(NC(=O)c3cccnc3NCc3ccncc3)ccc21	603 s
CCCN(CCC)S(=O)(=O)c1ccc(C)cc1	1200 s
O=C(CN1C(=O)CC(c2ccccc2)=Nc2cccnc21)Nc1ccc(Cl)cc1	1010 s
COc1ccc(CC(=O)Nc2ccc(-c3nc(C)no3)cc2)cc1OC	735 s
